{
  "source": "paper PMC12152883",
  "about": "“Bile acids inhibit equilibrative adenosine transport to alter adenosine receptor signaling in cholestasis” (The Journal of Biological Chemistry, 2025)",
  "key": {"[1]": {"experiment": "Cholestatic mouse model: liver CA, 13C-Ado and total Ado by LC/MS-MS", "assay_type": "in vivo", "details": "includes endogenous Ado", "quoted_text": "We also examined the total Ado content (includes endogenous Ado) in the harvested mouse livers using LC‒MS‒MS.\nAdenosine and ^13C-Ado concentrations were determined in liver tissue samples using a targeted LC‒MS/MS method. The liver samples (∼50 mg) were homogenized with 80% methanol and spiked with 1 μg/ml reserpine as an internal standard. The samples were thoroughly vortexed for 30 s and then centrifuged at 20,000g for 10 min. The supernatant was collected in labeled Eppendorf tubes, and 15 μl of each sample was injected into the LC‒MS/MS system. […] The operational mass spectrometric parameters included a capillary voltage of 4.5 kV; sheath gas of 35 arbitrary units; auxiliary gas of 10 arbitrary units; sweep gas of two arbitrary units; ion transfer tube temperature of 350 °C; vaporizer temperature of 450 °C; dwell time of 50 ms per transition, and collision-induced dissociation gas of 1.5 mTorr. The collision energy was set at 20 V for both Ado and ^13C-Ado, whereas it was set to 38 V for reserpine. Chromatographic separation was performed on a Scherzo SMC18 column (150 × 4.6 mm; 3 μm particle size) from Imtakt. […]\nTwo hours after the injection, mouse livers were harvested, and the amount of ^13C-Ado uptake in the liver was quantified via LC–MS-MS. […]"}, "PKC": {"system": "PKC", "experiment": "PKC activity in CA-treated HeLa cells", "assay_type": "cell-based", "details": "100 μM CA, 14 h; control 0.01 ± 0.002", "protocol": "(§1) High concentrations of BAs that inhibit ENT-mediated Ado transport could lead to an increase in extracellular Ado levels and therefore impact cell surface AdoR signaling.\n(§2) PKC activity was measured using PKC kinase activity kit (ADI-EKS-420A) purchased from Enzo Biochem. IP3 levels were quantified using an IP3 (Inositol Triphosphate) ELISA Kit (EKF58173) supplied by Biomatik Corporation."}, "PKA": {"system": "PKA", "experiment": "PKA activity in CA-treated HeLa cells", "assay_type": "cell-based", "details": "100 μM CA, 14 h; control 0.27 ± 0.016"}, "IP3": {"system": "IP3", "experiment": "IP3 levels in CA-treated HeLa cells", "assay_type": "cell-based", "details": "100 μM CA, 14 h; control 0.011 ± 0.0004", "protocol": "as §1, §2"}, "cAMP": {"system": "cAMP", "experiment": "cAMP levels in CA-treated HeLa cell lysate", "assay_type": "cell-based", "details": "100 μM CA, 14 h; control 0.96 ± 0.14"}},
  "data": [
    {"smiles": "C[C@H](CCC(=O)O)[C@H]1CC[C@H]2[C@@H]3[C@H](O)C[C@@H]4C[C@H](O)CC[C@]4(C)[C@H]3C[C@H](O)[C@]12C", "note": "[CA, cholic acid]", "values": [
      {"measurement": "reduction in the total Ado level in liver compared with control mice", "setting": "[1]", "value": "~12", "unit": "%"},
      {"measurement": "PKC activity in HeLa cells", "setting": "PKC", "value": "0.02 ± 0.0001", "unit": "U/μg protein"},
      {"measurement": "PKA activity in HeLa cells", "setting": "PKA", "value": "0.54 ± 0", "unit": "U/μg protein"},
      {"measurement": "IP3 levels in HeLa cells", "setting": "IP3", "value": "0.023 ± 0.0006", "unit": "μg/μg protein"},
      {"measurement": "cAMP levels in total HeLa cell lysate", "setting": "cAMP", "value": "1.28 ± 0.04", "unit": "pMol/μg protein"}
    ]}
  ]
}
